According to ChEMBL document CHEMBL2311281, “Novel berberine triazoles: synthesis, antimicrobial evaluation and competitive interactions with metal ions to human serum albumin” (Bioorg Med Chem Lett, 2013):
Values after ≈ are worked out from the molar mass of the structure shown.

Legend:
Pseudomonas aeruginosa = assay: Antibacterial activity against Pseudomonas aeruginosa by two fold serial dilution method; assay type: functional
Shigella dysenteriae = assay: Antibacterial activity against Shigella dysenteriae by two fold serial dilution method; assay type: functional
Micrococcus luteus = assay: Antibacterial activity against Micrococcus luteus ATCC 4698 by two fold serial dilution method; assay type: functional
Escherichia coli = assay: Antibacterial activity against Escherichia coli DH52 by two fold serial dilution method; assay type: functional
Bacillus subtilis = assay: Antibacterial activity against Bacillus subtilis by two fold serial dilution method; assay type: functional
Staphylococcus aureus [1] = assay: Antibacterial activity against Staphylococcus aureus ATCC 25923 by two fold serial dilution method; assay type: functional
Staphylococcus aureus [2] = assay: Antibacterial activity against methicillin-resistant Staphylococcus aureus N315 by two fold serial dilution method; assay type: functional
Proteus vulgaris = assay: Antibacterial activity against Proteus vulgaris by two fold serial dilution method; assay type: functional
Staphylococcus aureus [3] = assay: Potency index, ratio of MIC for berberine to MIC compound against methicillin-resistant Staphylococcus aureus N315 by two fold serial dilution method; assay type: functional
Staphylococcus aureus [4] = assay: Potency index, ratio of MIC for chloromycin to MIC compound against methicillin-resistant Staphylococcus aureus N315 by two fold serial dilution method; assay type: functional
Albumin [5] = target: T1, Albumin (Homo sapiens, UniProt P02768); assay: Ratio of binding affinity to HSA in presence of Mg2+ ions to binding affinity to HSA in absence of metal ions; assay type: ADME; conditions: isolated protein
Albumin [6] = target: T1, Albumin; assay: Ratio of binding affinity to HSA in presence of Cu2+ ions to binding affinity to HSA in absence of metal ions; assay type: ADME; conditions: isolated protein
Albumin [7] = target: T1, Albumin; assay: Ratio of binding affinity to HSA in presence of Ce3+ ions to binding affinity to HSA in absence of metal ions; assay type: ADME; conditions: isolated protein
Albumin [8] = target: T1, Albumin; assay: Ratio of binding affinity to HSA in presence of La3+ ions to binding affinity to HSA in absence of metal ions; assay type: ADME; conditions: isolated protein
Albumin [9] = target: T1, Albumin; assay: Ratio of binding affinity to HSA in presence of K+ ions to binding affinity to HSA in absence of metal ions; assay type: ADME; conditions: isolated protein
Albumin [10] = target: T1, Albumin; assay: Ratio of binding affinity to HSA in presence of Ni2+ ions to binding affinity to HSA in absence of metal ions; assay type: ADME; conditions: isolated protein
Albumin [11] = target: T1, Albumin; assay: Ratio of binding affinity to HSA in presence of Zn2+ ions to binding affinity to HSA in absence of metal ions; assay type: ADME; conditions: isolated protein
Albumin [12] = target: T1, Albumin; assay: Ratio of binding affinity to HSA in presence of Pb2+ ions to binding affinity to HSA in absence of metal ions; assay type: ADME; conditions: isolated protein
Albumin [13] = target: T1, Albumin; assay: Ratio of binding affinity to HSA in presence of Fe3+ ions to binding affinity to HSA in absence of metal ions; assay type: ADME; conditions: isolated protein
Albumin [14] = target: T1, Albumin; assay: Ratio of binding affinity to HSA in presence of Ca2+ ions to binding affinity to HSA in absence of metal ions; assay type: ADME; conditions: isolated protein

T1 sequence (P02768 whole entry): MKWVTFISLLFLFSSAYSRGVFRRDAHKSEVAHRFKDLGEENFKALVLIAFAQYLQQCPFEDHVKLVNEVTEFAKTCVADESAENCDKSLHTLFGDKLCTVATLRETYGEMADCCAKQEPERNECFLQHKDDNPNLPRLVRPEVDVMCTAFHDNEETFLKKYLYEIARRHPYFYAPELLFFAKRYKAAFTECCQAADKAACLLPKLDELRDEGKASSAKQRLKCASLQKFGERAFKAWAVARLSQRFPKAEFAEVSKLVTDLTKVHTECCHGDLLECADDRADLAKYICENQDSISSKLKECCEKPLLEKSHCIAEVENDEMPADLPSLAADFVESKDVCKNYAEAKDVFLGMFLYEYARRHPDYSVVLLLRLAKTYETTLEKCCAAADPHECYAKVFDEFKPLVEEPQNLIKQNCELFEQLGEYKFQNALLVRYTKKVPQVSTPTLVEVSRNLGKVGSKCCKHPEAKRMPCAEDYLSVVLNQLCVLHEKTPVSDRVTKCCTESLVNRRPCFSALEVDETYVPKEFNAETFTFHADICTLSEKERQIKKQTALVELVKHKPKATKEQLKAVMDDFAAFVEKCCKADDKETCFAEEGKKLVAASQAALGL

| SMILES | MIC (Pseudomonas aeruginosa) [µg/mL] | MIC (Shigella dysenteriae) [µg/mL] | MIC (Micrococcus luteus) [µg/mL] | MIC (Escherichia coli) [µg/mL] | MIC (Bacillus subtilis) [µg/mL] | MIC (Staphylococcus aureus [1]) [µg/mL] | MIC (Staphylococcus aureus [2]) [µg/mL] | MIC (Proteus vulgaris) [µg/mL] | Ratio (Staphylococcus aureus [3]) | Ratio (Staphylococcus aureus [4]) | Ratio (Albumin [5]) | Ratio (Albumin [6]) | Ratio (Albumin [7]) | Ratio (Albumin [8]) | Ratio (Albumin [9]) | Ratio (Albumin [10]) | Ratio (Albumin [11]) | Ratio (Albumin [12]) | Ratio (Albumin [13]) | Ratio (Albumin [14]) |
| --- | --- | --- | --- | --- | --- | --- | --- | --- | --- | --- | --- | --- | --- | --- | --- | --- | --- | --- | --- | --- |
| COc1ccc2cc3[n+](cc2c1OCCN(CCn1cncn1)Cc1ccc(Cl)cc1)CCc1cc2c(cc1-3)OCO2.[Cl-] | 16 | 8 | 16 | 16 | 8 | 16 | 16 | 32 | – | – | – | – | – | – | – | – | – | – | – | – |
| COc1ccc2cc3[n+](cc2c1OCCN(CCn1cncn1)Cc1cccc(Cl)c1)CCc1cc2c(cc1-3)OCO2.[Cl-] | 32 | 32 | 32 | 8 | 16 | 8 | 32 | 32 | – | – | – | – | – | – | – | – | – | – | – | – |
| COc1ccc2cc3[n+](cc2c1OCCN(CCn1cncn1)Cc1ccccc1Cl)CCc1cc2c(cc1-3)OCO2.[Cl-] | 32 | 32 | 32 | 8 | 8 | 8 | 16 | 16 | – | – | – | – | – | – | – | – | – | – | – | – |
| COc1ccc2cc3[n+](cc2c1OCCN(CCn1cncn1)Cc1ccc(Cl)c(Cl)c1)CCc1cc2c(cc1-3)OCO2.[Cl-] | 16 | 16 | 16 | 8 | 8 | 8 | 16 | 8 | – | – | – | – | – | – | – | – | – | – | – | – |
| COc1ccc2cc3[n+](cc2c1OCCN(CCn1cncn1)Cc1ccc(Cl)cc1Cl)CCc1cc2c(cc1-3)OCO2.[Cl-] | 16 | 8 | 16 | 4 | 8 | 8 | 8 | 8 | 16 | 2 | – | – | – | – | – | – | – | – | – | – |
| COc1ccc2cc3[n+](cc2c1OCCN(CCn1cncn1)Cc1cccc(F)c1)CCc1cc2c(cc1-3)OCO2.[Cl-] | 8 | 4 | 16 | 8 | 8 | 8 | 8 | 4 | 16 | 2 | – | – | – | – | – | – | – | – | – | – |
| COc1ccc2cc3[n+](cc2c1OCCN(CCn1cncn1)Cc1ccccc1F)CCc1cc2c(cc1-3)OCO2.[Cl-] | 8 | 4 | 8 | 4 | 8 | 4 | 8 | 4 | 16 | 2 | – | – | – | – | – | – | – | – | – | – |
| Clc1ccc(CN(CCBr)CCn2cncn2)cc1 | 256 (≈ 745 µM) | 256 (≈ 745 µM) | 512 (≈ 1490 µM) | 128 (≈ 372 µM) | 256 (≈ 745 µM) | 128 (≈ 372 µM) | 256 (≈ 745 µM) | 512 (≈ 1490 µM) | – | – | – | – | – | – | – | – | – | – | – | – |
| COc1ccc2cc3[n+](cc2c1OCCN(CCn1cncn1)Cc1ccc(F)cc1F)CCc1cc2c(cc1-3)OCO2.[Cl-] | 8 | 4 | 8 | 4 | 8 | 4 | 8 | 2 | 16 | 2 | 1.064 | 0.972 | 0.998 | 0.883 | 0.943 | 0.839 | 0.871 | 0.963 | 1.116 | 0.956 |
| Clc1cccc(CN(CCBr)CCn2cncn2)c1 | 256 (≈ 745 µM) | 256 (≈ 745 µM) | 64 (≈ 186 µM) | 128 (≈ 372 µM) | 256 (≈ 745 µM) | 128 (≈ 372 µM) | 256 (≈ 745 µM) | > 512 | – | – | – | – | – | – | – | – | – | – | – | – |
| Clc1ccc(CN(CCBr)CCn2cncn2)c(Cl)c1 | 128 (≈ 339 µM) | 128 (≈ 339 µM) | 32 (≈ 84.6 µM) | 32 (≈ 84.6 µM) | 256 (≈ 677 µM) | 64 (≈ 169 µM) | 256 (≈ 677 µM) | 128 (≈ 339 µM) | – | – | – | – | – | – | – | – | – | – | – | – |
| Clc1ccc(CN(CCBr)CCn2cncn2)cc1Cl | 128 (≈ 339 µM) | 128 (≈ 339 µM) | 32 (≈ 84.6 µM) | 32 (≈ 84.6 µM) | 256 (≈ 677 µM) | 64 (≈ 169 µM) | 256 (≈ 677 µM) | 256 (≈ 677 µM) | – | – | – | – | – | – | – | – | – | – | – | – |
| Clc1ccccc1CN(CCBr)CCn1cncn1 | 128 (≈ 372 µM) | 256 (≈ 745 µM) | 64 (≈ 186 µM) | 64 (≈ 186 µM) | 256 (≈ 745 µM) | 128 (≈ 372 µM) | 256 (≈ 745 µM) | 512 (≈ 1490 µM) | – | – | – | – | – | – | – | – | – | – | – | – |
| Fc1cccc(CN(CCBr)CCn2cncn2)c1 | 128 (≈ 391 µM) | 64 (≈ 196 µM) | 64 (≈ 196 µM) | 64 (≈ 196 µM) | 256 (≈ 782 µM) | 64 (≈ 196 µM) | 128 (≈ 391 µM) | 256 (≈ 782 µM) | – | – | – | – | – | – | – | – | – | – | – | – |
| Fc1ccc(CN(CCBr)CCn2cncn2)c(F)c1 | 128 (≈ 371 µM) | 64 (≈ 185 µM) | 32 (≈ 92.7 µM) | 32 (≈ 92.7 µM) | 256 (≈ 742 µM) | 64 (≈ 185 µM) | 128 (≈ 371 µM) | 128 (≈ 371 µM) | – | – | – | – | – | – | – | – | – | – | – | – |
| Fc1ccccc1CN(CCBr)CCn1cncn1 | 128 (≈ 391 µM) | 64 (≈ 196 µM) | 64 (≈ 196 µM) | 32 (≈ 97.8 µM) | 256 (≈ 782 µM) | 64 (≈ 196 µM) | 128 (≈ 391 µM) | 256 (≈ 782 µM) | – | – | – | – | – | – | – | – | – | – | – | – |
| COc1ccc2cc3[n+](cc2c1OC)CCc1cc2c(cc1-3)OCO2 [BERBERINE] | 256 | 256 | > 512 | > 512 | > 512 | 512 | 128 | 128 | – | – | – | – | – | – | – | – | – | – | – | – |
| O=C(N[C@H](CO)[C@H](O)c1ccc([N+](=O)[O-])cc1)C(Cl)Cl [CHLORAMPHENICOL] | 32 (≈ 99 µM) | 32 (≈ 99 µM) | 8 (≈ 24.8 µM) | 32 (≈ 99 µM) | 32 (≈ 99 µM) | 16 (≈ 49.5 µM) | 16 (≈ 49.5 µM) | 32 (≈ 99 µM) | – | – | – | – | – | – | – | – | – | – | – | – |
| CCn1cc(C(=O)O)c(=O)c2cc(F)c(N3CCNCC3)cc21 [NORFLOXACIN] | 16 (≈ 50.1 µM) | 4 (≈ 12.5 µM) | 2 (≈ 6.26 µM) | 16 (≈ 50.1 µM) | 1 (≈ 3.13 µM) | 0.5 (≈ 1.57 µM) | 8 (≈ 25.1 µM) | 8 (≈ 25.1 µM) | – | – | – | – | – | – | – | – | – | – | – | – |
